Consider eleven compounds from ChEMBL document CHEMBL5465560, “Selectivity Literature for EUbOPEN Chemogenomic Library” (2024).

Assay [1] concerns the target Tyrosine-protein kinase ABL1 (Homo sapiens, UniProt P00519). The settings on record: at 10 µM.
Assay [2] has as its target T1, Myosin light chain kinase (Homo sapiens) (UniProt Q32MK0).
T1 sequence (whole entry): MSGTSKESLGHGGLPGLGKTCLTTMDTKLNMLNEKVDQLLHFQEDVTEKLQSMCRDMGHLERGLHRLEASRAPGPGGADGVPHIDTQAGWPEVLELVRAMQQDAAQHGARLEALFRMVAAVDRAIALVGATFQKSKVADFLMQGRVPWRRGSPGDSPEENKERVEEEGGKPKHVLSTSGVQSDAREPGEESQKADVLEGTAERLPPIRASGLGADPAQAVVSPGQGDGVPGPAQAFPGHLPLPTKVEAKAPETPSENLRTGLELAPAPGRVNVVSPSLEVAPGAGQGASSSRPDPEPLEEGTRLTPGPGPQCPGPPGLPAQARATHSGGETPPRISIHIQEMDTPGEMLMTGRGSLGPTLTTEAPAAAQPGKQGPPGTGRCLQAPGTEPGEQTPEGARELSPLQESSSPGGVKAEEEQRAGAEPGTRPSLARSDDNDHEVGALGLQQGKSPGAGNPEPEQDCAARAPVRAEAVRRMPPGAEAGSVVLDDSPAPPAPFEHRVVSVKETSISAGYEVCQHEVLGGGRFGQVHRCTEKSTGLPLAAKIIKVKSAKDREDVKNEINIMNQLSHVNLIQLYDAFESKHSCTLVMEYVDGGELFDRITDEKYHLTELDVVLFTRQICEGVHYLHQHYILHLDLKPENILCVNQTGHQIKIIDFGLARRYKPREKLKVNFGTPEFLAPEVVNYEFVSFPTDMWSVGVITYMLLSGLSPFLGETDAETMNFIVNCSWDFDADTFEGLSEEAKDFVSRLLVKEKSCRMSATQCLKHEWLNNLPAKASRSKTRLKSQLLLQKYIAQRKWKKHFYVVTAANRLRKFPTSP
In words: Selectivity interaction (KinomeScan (DiscoverX)) EUB0000695a MYLK3. The settings on record: at 100 nM.

Assay [3] has as its target T2, Inhibitor of nuclear factor kappa-B kinase subunit beta (Homo sapiens) (UniProt O14920).
T2 sequence (whole entry): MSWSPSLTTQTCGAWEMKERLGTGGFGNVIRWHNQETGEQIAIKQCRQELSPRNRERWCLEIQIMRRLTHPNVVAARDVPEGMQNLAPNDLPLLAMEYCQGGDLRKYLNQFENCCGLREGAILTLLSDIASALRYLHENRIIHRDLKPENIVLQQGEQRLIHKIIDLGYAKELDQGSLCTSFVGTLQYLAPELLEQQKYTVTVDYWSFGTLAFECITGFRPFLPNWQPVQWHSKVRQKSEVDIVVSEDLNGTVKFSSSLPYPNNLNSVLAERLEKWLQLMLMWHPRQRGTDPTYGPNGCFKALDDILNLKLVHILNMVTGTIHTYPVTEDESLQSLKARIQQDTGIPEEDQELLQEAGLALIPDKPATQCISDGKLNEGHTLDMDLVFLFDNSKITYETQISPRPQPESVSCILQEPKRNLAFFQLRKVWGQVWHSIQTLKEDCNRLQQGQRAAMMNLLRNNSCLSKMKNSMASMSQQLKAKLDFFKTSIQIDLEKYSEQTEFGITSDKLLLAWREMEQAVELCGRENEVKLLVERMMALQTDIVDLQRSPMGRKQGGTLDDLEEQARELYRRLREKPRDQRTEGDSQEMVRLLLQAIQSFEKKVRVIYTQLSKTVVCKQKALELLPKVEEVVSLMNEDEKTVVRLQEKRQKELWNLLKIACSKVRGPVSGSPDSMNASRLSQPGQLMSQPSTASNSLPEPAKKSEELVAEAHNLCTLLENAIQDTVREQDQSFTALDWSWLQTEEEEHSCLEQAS
The conditions noted are these: at 10 µM.

Assay [4] addresses Serine/threonine-protein kinase VRK2 (Homo sapiens) (UniProt Q86Y07). In words: Selectivity interaction (ActivX KiNativ screen (kinase selectivity in THP-1 cell lysates)) EUB0000639a VRK2. It is filed as subcellular. The conditions noted are these: lysate.
The target in assay [5] is Serine/threonine-protein kinase MRCK gamma (Homo sapiens) (UniProt Q6DT37). In words: Selectivity interaction (KinomeScan (DiscoverX)) EUB0000045b CDC42BPG.
For assay [6], the target named is T3, Activin receptor type-1 (Homo sapiens) (UniProt Q04771).
T3 sequence (whole entry): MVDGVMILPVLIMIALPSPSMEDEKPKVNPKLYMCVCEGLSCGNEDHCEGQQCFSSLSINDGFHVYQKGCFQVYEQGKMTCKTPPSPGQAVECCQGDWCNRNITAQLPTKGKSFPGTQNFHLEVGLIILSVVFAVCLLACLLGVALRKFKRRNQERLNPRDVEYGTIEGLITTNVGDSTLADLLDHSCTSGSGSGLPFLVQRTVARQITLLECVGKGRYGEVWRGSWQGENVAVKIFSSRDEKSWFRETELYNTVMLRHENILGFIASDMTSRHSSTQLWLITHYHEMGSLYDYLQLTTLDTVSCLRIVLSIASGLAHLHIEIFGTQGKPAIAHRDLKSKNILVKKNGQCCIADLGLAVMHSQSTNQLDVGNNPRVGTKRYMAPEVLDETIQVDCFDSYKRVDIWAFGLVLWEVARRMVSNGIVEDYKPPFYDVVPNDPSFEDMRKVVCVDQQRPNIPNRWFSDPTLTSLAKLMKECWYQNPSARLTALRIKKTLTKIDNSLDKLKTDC
In words: Selectivity interaction (KinomeScan (DiscoverX)) EUB0001049a ACVR1. The conditions noted are these: at 1 µM.

Assay [7] concerns the target Serine/threonine-protein kinase 32B (Homo sapiens) (UniProt Q9NY57). In words: Selectivity interaction (KinomeScan (DiscoverX)) EUB0000655a STK32B. The settings on record: at 10 µM.
Assay [8] has as its target Vascular endothelial growth factor receptor 1 (Homo sapiens) (UniProt P17948). In words: Selectivity interaction (KinomeScan (DiscoverX)) EUB0000618a FLT1. The conditions noted are these: at 10 µM.
The target in assay [9] is 5'-AMP-activated protein kinase catalytic subunit alpha-2 (Homo sapiens) (UniProt P54646). In words: Selectivity interaction (KinomeScan (DiscoverX)) EUB0000618a PRKAA2. The settings on record: at 10 µM.
Assay [10] concerns the target LIM domain kinase 1 (Homo sapiens) (UniProt P53667). In words: Selectivity interaction (KinomeScan (DiscoverX)) EUB0000092b LIMK1. The conditions noted are these: at 10 µM.
Assay [11] addresses Fibroblast growth factor receptor 2 (Homo sapiens) (UniProt P21802). In words: Selectivity interaction (KinomeScan (DiscoverX)) EUB0000092b FGFR2. The conditions noted are these: at 10 µM.
Assay [12] deals with Protein polybromo-1 (Homo sapiens) (UniProt Q86U86). In words: Selectivity interaction (Human bromodomain panel (DSF assay)) EUB0000233b PBRM1. (DSF heats the sample and reads unfolding from a dye or from intrinsic fluorescence.)
In a further assay the target is Ephrin type-A receptor 4 (Homo sapiens, UniProt P54764). In words: Selectivity interaction (KinomeScan (DiscoverX)) EUB0000229b EPHA4. The conditions noted are these: at 10 µM.

Serine/threonine-protein kinase VRK2 (Homo sapiens), sequence (Q86Y07 whole entry): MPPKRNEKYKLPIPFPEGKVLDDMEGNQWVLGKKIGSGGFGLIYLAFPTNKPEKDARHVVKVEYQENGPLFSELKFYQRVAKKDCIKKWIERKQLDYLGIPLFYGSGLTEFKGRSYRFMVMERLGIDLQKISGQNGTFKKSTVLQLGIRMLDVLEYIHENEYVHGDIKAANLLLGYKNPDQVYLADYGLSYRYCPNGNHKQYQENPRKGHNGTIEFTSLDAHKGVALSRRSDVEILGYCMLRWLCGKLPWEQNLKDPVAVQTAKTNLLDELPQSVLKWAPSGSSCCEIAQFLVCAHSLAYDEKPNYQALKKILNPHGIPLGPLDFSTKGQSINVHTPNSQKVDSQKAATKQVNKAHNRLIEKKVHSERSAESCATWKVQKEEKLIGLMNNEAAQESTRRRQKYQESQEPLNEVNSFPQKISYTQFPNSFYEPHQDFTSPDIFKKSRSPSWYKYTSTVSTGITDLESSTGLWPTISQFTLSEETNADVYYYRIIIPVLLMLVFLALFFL
Serine/threonine-protein kinase MRCK gamma (Homo sapiens), sequence (Q6DT37 whole entry): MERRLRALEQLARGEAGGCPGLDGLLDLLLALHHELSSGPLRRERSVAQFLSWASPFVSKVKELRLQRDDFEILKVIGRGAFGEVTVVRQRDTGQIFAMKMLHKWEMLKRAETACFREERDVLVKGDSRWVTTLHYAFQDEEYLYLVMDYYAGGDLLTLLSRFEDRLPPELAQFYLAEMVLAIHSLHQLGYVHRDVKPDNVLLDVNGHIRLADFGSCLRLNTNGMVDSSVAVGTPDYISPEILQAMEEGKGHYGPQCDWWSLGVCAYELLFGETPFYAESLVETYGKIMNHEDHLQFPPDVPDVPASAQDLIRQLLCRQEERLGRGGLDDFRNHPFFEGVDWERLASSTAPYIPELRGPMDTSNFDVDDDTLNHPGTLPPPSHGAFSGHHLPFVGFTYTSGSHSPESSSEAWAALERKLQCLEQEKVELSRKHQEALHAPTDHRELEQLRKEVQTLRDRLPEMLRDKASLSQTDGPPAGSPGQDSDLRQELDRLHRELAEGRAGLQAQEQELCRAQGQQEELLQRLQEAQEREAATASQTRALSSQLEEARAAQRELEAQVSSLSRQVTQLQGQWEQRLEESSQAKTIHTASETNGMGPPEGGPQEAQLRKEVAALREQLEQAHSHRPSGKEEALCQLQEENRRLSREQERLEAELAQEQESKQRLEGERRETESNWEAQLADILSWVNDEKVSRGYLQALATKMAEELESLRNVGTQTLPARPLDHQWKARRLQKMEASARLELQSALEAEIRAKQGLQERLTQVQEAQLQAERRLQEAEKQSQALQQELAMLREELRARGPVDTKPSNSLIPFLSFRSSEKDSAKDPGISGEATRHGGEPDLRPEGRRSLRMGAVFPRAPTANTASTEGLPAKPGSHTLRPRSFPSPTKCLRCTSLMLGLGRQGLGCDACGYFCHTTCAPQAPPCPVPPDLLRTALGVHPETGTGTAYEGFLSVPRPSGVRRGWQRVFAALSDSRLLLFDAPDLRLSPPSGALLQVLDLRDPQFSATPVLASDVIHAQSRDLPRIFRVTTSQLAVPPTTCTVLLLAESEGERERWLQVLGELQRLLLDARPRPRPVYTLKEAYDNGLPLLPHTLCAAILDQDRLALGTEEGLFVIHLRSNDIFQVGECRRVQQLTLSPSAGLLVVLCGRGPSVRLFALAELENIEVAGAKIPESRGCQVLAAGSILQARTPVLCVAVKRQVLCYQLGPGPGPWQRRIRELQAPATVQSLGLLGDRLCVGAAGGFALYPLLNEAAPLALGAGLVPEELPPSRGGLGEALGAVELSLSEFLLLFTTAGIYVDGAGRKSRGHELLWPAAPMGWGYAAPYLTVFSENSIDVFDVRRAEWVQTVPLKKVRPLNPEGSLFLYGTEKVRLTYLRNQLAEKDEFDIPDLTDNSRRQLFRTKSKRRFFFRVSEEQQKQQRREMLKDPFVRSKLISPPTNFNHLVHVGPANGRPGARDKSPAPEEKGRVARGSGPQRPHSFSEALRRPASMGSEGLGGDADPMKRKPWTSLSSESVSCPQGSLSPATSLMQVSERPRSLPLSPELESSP
Tyrosine-protein kinase ABL1, sequence (P00519 whole entry): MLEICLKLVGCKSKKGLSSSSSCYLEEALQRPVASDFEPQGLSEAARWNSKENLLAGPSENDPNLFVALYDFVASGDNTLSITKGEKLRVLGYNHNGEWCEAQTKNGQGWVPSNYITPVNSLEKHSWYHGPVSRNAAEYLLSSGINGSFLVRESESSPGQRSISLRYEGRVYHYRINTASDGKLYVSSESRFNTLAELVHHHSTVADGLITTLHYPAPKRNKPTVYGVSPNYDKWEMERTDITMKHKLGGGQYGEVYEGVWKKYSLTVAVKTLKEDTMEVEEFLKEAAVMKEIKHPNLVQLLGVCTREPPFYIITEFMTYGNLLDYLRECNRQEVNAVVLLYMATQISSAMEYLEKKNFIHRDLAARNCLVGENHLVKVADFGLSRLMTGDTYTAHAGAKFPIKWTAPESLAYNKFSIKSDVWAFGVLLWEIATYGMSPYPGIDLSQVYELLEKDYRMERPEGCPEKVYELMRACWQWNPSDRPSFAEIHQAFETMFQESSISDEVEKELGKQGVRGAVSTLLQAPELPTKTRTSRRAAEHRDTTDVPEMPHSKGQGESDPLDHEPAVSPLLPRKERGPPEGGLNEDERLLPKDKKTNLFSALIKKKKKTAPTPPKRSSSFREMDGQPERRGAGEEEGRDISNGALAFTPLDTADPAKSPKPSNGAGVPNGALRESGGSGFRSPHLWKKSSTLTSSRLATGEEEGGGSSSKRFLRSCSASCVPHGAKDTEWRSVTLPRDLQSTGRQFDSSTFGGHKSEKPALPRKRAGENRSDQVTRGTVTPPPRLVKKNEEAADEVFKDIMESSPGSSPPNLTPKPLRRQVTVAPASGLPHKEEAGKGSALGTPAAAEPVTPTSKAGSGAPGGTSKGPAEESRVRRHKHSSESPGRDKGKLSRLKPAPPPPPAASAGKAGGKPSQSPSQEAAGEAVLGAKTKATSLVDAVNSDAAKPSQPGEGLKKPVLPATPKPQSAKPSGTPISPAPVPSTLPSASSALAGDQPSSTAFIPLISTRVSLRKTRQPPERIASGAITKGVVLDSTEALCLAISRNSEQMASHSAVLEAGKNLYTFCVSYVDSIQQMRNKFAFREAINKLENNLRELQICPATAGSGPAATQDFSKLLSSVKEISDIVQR
Protein polybromo-1 (Homo sapiens), sequence (Q86U86 whole entry): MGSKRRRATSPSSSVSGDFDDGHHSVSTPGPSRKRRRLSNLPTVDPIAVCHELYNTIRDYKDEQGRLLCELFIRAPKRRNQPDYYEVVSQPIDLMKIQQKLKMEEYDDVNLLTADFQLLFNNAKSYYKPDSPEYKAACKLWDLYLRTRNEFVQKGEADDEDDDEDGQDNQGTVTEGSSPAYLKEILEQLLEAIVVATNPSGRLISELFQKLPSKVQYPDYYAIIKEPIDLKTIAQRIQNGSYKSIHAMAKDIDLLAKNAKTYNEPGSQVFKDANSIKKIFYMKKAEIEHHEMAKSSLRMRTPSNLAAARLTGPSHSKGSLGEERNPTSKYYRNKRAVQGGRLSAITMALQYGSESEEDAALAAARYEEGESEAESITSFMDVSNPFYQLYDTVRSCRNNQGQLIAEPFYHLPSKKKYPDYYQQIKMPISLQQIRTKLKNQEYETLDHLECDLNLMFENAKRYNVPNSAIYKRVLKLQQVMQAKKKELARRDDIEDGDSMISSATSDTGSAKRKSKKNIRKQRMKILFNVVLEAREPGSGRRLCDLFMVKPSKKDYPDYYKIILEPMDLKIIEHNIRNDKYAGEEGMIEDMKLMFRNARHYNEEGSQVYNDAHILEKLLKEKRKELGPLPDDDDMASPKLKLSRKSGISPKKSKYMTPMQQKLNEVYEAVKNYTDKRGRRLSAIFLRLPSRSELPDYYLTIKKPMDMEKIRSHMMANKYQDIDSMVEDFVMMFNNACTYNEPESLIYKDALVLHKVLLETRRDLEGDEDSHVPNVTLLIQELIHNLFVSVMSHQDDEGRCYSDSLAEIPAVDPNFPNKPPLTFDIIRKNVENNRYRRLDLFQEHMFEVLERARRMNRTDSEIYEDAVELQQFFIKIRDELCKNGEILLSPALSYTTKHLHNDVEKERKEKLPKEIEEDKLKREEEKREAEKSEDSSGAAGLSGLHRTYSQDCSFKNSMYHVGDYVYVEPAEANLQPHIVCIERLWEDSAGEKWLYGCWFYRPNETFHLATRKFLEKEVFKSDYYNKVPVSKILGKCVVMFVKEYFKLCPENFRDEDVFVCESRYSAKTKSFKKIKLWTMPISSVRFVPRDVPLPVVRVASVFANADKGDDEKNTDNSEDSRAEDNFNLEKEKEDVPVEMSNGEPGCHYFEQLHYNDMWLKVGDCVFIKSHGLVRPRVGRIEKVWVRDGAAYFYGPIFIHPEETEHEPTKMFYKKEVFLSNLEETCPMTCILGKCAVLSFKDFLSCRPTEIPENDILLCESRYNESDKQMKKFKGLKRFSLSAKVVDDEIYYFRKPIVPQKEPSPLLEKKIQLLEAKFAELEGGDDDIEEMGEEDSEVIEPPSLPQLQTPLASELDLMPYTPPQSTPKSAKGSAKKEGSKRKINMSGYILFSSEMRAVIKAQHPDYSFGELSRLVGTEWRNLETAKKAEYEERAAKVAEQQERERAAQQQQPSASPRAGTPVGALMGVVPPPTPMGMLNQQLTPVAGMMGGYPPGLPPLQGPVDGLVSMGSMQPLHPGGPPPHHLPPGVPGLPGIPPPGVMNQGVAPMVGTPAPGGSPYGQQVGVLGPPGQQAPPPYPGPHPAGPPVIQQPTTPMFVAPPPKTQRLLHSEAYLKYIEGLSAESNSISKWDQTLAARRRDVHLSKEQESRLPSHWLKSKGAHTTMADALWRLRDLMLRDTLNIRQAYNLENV

`CCN(CC)CCCCNc1ncc2cc(-c3cc(OC)cc(OC)c3)c(NC(=O)NC(C)(C)C)nc2n1` had a % of control in assay [1] of 100%.
In [2], `Cc1cc(F)c(C(=O)Nc2cccc(-c3nncn3C(C)C)n2)cc1-n1cnc(C2CC2)c1` had a % of control of 100%.
With `Cc1cc([C@@H](C)Nc2ccccc2C(=O)O)c2nc(N3CCOCC3)cc(=O)n2c1` [AZD-6482], in [3], the % of control amounted to 90%.
`CC[C@@H]1[C@H](F)C(=O)N[C@@H]1COc1nccc2cc(C(N)=O)c(OC)cc12` [ZIMLOVISERTIB]: the % of inhibition in assay [4] (at 0.01 µM) was -16.6%; in assay [4] (at 0.04 µM) it was -6%; in assay [4] (at 0.2 µM), -28.4%; in assay [4] (at 1 µM), -14.8%; in assay [4] (at 5 µM), 8.1%.
Consider `C=CC(=O)Nc1cc(-n2c(=O)ccc3cnc4ccc(-c5ccc(NS(C)(=O)=O)cc5)cc4c32)ccc1C`, for which the % of control came to 100% in assay [5] (at 1 µM) and 90% in [5] (at 10 µM).
With `COc1cc(Nc2nc(C)cc(-c3cnn4nc(OC)ccc34)n2)cc(C(F)(F)F)c1`, the % of control in assay [6] was found to be 78%.
Regarding `CN(C)CCOc1ccc(-c2nc(-c3ccncc3)c(-c3ccc4c(c3)CC/C4=N\O)[nH]2)cc1`, the % of control in assay [7] stood at 85%.
For the compound `O[C@H]1CC[C@H](Nc2ncc3nc(Nc4c(F)cc(F)cc4F)n([C@H]4CCOC4)c3n2)CC1`, the % of control was 86% in assay [8] and 100% in [9].
As to `CCC(=O)N1CCN(c2ccc(-n3c(=O)ccc4cnc5ccc(-c6cnc7ccccc7c6)cc5c43)cc2C(F)(F)F)CC1`, the figures for the % of control in assay [10] and in [11] were 15% and 55%, respectively.
In the case of `CN(C)CCCOc1ccc(-c2cc(NCCCn3cccn3)nc(S(C)(=O)=O)n2)cc1`, in assay [12], the dTM is less than 2 K.
`COc1cc(N(C)c2ccnc3ccc(C(F)(F)F)cc23)cc(OC)c1OC`: the % binding at Ephrin type-A receptor 4 came to 100%.
